The results in this text go back to patent US7910622B2, “Modulation of bacterial quorum sensing with synthetic ligands” (Wisconsin Alumni Research Foundation, priority 2007, dated 2011).

In assay [1] the target is QscR:DNA binding (PA1897 promoter) (Pseudomonas aeruginosa, UniProt G3XD77). The source says: We sought to obtain further insights into the mechanism of QscR modulation by non-native AHLs. […] We therefore performed electromobility shift assays (EMSA) on purified QscR and radiolabeled PA1897 promoter in the presence of selected QscR antagonists and 1.
The target in the next assay is T1, TraR (Agrobacterium tumefaciens, UniProt P33905).
T1 construct: These strains lack their AHL synthase (I) genes, but retain their native R genes; endogenous in cells; host or cells: A. tumefaciens WCF47 (Δ-traI) with PtraI-lacZ plasmid pCF372
Nature of the assay: cell-based. The conditions noted are these: for activation at 10 µM: read-out: A. tumefaciens-TraR Activation [%]; for inhibition at 10 µM: read-out: A. tumefaciens-TraR Inhibition [%], 10 μM synthetic ligand against 100 nM OOHL; for inhibition at 10 µM / A. tumefaciens-TraR Activation [%] / A. tumefaciens-TraR Inhibition [%]: A. tumefaciens WCF47 (pCF372), normalized to OOHL; for A. tumefaciens-TraR Activation [%]: 10 μM ligand; for A. tumefaciens-TraR Inhibition [%]: 10 μM synthetic ligand against 100 nM OOHL.

For a further assay, the target named is T2, QscR (Pseudomonas aeruginosa, UniProt G3XD77).
T2 construct: expressed in transfected cells; host or cells: recombinant E. coli (pJN105Q) with β-gal promoter fusion
Nature of the assay: QscR competitive antagonism reporter gene assay (β-gal) against DDHL in recombinant E. coli (pJN105Q). In kind it is cell-based.

Assay [2] deals with wild-type V. fischeri ES114. Nature of the assay: Luminescence dose response in wild-type V. fischeri ES114. Format: cell-based, Vibrio fischeri. Conditions: relative to OHHL. The protocol:
Vibrio fischeri assay procedures. For primary agonism assays, an appropriate amount of concentrated control or PHL (11) stock solution, to give a final concentration of 200 μM, was added to wells in a 96-well multititer plate. An overnight culture of V. fischeri ES114 (WT, Δ-luxI or Δ-luxR) was diluted 1:10 with LBS medium. A-200 μL portion of the diluted culture was added to each well of the plate. Plates were grown at RT with shaking (200 rpm) until the OD600=0.35-0.4 (4-6 h). Luminescence then was measured and normalized to cell density per well. […] Similar methods were used for dose response assays, except the concentrations of controls and PHLs 11 used were between 0.02 and 2×10^5 nM. All assays were performed in triplicate. IC50 and EC50 values were calculated using GraphPad Prism software using a sigmoidal curve fit.

Like-named read-outs stand apart in the source and are kept apart here.

Chain of QscR:DNA binding (PA1897 promoter) (G3XD77 entry or part of it): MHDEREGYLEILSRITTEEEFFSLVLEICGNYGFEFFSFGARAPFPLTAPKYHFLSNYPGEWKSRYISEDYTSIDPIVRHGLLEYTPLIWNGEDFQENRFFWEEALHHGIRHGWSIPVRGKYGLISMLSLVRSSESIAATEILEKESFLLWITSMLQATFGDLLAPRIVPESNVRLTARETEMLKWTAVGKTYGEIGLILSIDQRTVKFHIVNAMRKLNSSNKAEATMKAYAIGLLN
T1 sequence (P33905 whole entry): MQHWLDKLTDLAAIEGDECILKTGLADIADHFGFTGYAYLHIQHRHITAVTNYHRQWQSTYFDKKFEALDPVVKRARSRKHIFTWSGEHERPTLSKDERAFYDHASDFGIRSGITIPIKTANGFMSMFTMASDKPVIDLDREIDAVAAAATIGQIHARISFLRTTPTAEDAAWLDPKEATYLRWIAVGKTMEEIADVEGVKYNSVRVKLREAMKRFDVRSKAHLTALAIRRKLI
T2 sequence (G3XD77 entry or part of it): as the sequence (G3XD77 entry or part of it) above

`O=C(Cc1ccc(-c2ccccc2)cc1)N[C@H]1CCOC1=O` [C18, 4-phenyl PHL]: the “inhibition of OdDHL-dependent QscR:DNA binding” value in assay [1] (100:1 ratio with OdDHL) is given as 85%; in assay [1] (EMSA) it was “capable of inhibiting OdDHL (1)-dependent QscR:DNA binding”. In addition, in assay [1] (1000:1 ratio vs. OdDHL), the “reduction of QscR:DNA binding” value turned out to be 100%. Also, the “Activation (%)” value on TraR (A. tumefaciens-TraR, Library C primary agonism screen) stood at 0%. For the same compound, the “Inhibition (%)” value on TraR (A. tumefaciens-TraR, Library C primary antagonism screen) is 67%. The activation at 10 µM on TraR was 0%. The inhibition at 10 µM at TraR was around 70%. Moreover, the IC50 on QscR turned out to be 0.03 µM.

On to `O=C(CCCc1c[nH]c2ccccc12)N[C@H]1CCOC1=O` [A18, indole AHL, reference compound], for which, at TraR, the “A. tumefaciens-TraR Activation [%]” value was found to be 0% and the “A. tumefaciens-TraR Inhibition [%]” value was 35%.

Turning to `O=C(Cc1ccc(Br)cc1)N[C@H]1CCOC1=O` [A17, 4-bromo-phenylacetanoyl HL, reference compound], on TraR, the IC50 came to 4.73 µM, the “A. tumefaciens-TraR Inhibition [%]” value came to 88% and the activation at 10 µM was determined as 1%.

In the case of 3-nitro PHL [B17], at TraR, the “A. tumefaciens-TraR Activation [%]” value turned out to be 0% and the “A. tumefaciens-TraR Inhibition [%]” value is on record as 46%. For the same compound, in assay [2], the “activity in wild-type V. fischeri” value is “super-agonistic activity”.

Consider `O=C(Cc1ccc(Br)cc1)N[C@H]1CCOC1=O` [compound 8, N-(4-bromo-phenylacetanoyl)-L-homoserine lactone, reference compound], for which, on TraR, the “A. tumefaciens-TraR Activation [%]” value is reported as 1% and the inhibition at 10 µM is around 90%. Further, on TraR (read-out: TraR IC50, determined against 100 nM OOHL), the IC50 was found to be 4.73 µM.

`O=C(Cc1ccc(-c2ccccc2)cc1)NC1CCOC1=O` (stereo not drawn) [B21, 4-phenyl PHL]: on TraR, the activation at 10 µM is 0% and the inhibition at 10 µM was around 70%.
